# Results taken from US9168247B2, “Beta carboline derivatives useful in the treatment of proliferative disorders” (FACULTES UNIVERSITAIRES NOTRE DAME DE LA PAIX, priority 2010, dated 2015).
# Like-named read-outs stand apart in the source and are kept apart here.
# What was measured:
# [1] = test system: U373 glioma cells; test: MTT test, overall cell growth, U373; format: cell-based, human; conditions: 72 hours of incubation
# Method: (§1) MTT tests were performed in order to rapidly, i.e., within 5 days, measure the effect of the present compounds on the overall cell growth. The test measured the number of metabolically active living cells that were able to transform the yellow product 3-(4,5-dimethylthiazol-2-yl)-2,5-diphenyl tetrazolium bromide (herein referred as MTT) into the blue product formazan dye by mitochondrial reduction. The amount of formazan obtained at the end of the experiment, measured by means of a spectrophotometer, is directly proportional to the number of living cells. Optical density determination thus enabled a quantitative measurement of the effect of the investigated compounds as compared to the control condition (untreated cells) and/or to other reference compounds.
# (§2) Five human cancer cell lines set forth in Table 3 were used in the MTT tests. These cancer cell lines cover two histological cancer types including glioma (Hs683, T98G, U373), and oesophageal (OE21, OE33) cancers. The U373 cell line is apoptosis-resistant but autophagy-sensitive.
# (§3) To perform the assay, cells were allowed to grow in 96-well micro-wells with a flat bottom with an amount of 100 μl of cell suspension per well with 5,000 to 8,000 cells/well depending on the cell type used. Each cell line was seeded in its appropriate culture medium.
# (§4) The detailed experimental procedure was as follows: after a 24-hour period of incubation at 37° C., the culture medium was replaced by 100 μl of fresh medium in which the tested compound was previously dissolved, at the following molar concentrations: 1×10^−8 M, 5×10^−8 M, 1×10^−7 M, 5×10^−7 M, 1×10^−6 M, 5×10^−6 M, 1×10^−5 M, 5×10^−5 M and 1×10^−4 M. Each experiment was performed in sestuplicate (6 times).
# (§5) After 72 hours of incubation at 37° C. with (experimental conditions) or without (control condition) the compound to be tested, the medium was replaced by 100 μl MTT dissolved in RPMI (1640 without phenol red) at a concentration of 0.5 or 1 mg/ml. The micro-wells were subsequently incubated during 3 hours and a half at 37° C. and centrifuged at 1300 rpm during 10 minutes. MTT was removed and formazan crystals formed were dissolved in […]. The micro-wells were shaken for 5 minutes and read on a spectrophotometer at wavelengths of 570 nm (maximal formazan absorbance).
# (§6) For each experimental condition, the mean optical density was calculated, allowing the determination of the percentage of remaining living cells in comparison to the control.
# (§7) The origin of all the cell lines we used, along with their biological characteristics, and the validation procedures of the MTT colorimetric assay as employed here are fully detailed in Van Quaquebeke et al., 2005, J Med Chem 48:849-856; Ingrassia et al., 2009, J Med Chem 52:1100-1114; Mathieu et al., 2009, J Cell Mol Med, Feb. 20, 2009.
# [2] = test system: T98G glioma cells; test: MTT test, overall cell growth, T98G; format: cell-based, human; conditions: 72 hours of incubation
# Method: as §1, §2, §3, §4, §5, §6, §7
# [3] = test system: Hs683 glioma cells; test: MTT test, overall cell growth, Hs683; format: cell-based, human
# Method: as §1, §2, §3, §4, §5, §6, §7
# [4] = test system: OE21 oesophageal cancer cells; test: MTT test, overall cell growth, OE21; format: cell-based, human
# Method: as §1, §2, §3, §4, §5, §6, §7
# [5] = test system: OE33 oesophageal cancer cells; test: MTT test, overall cell growth, OE33; format: cell-based, human
# Method: as §1, §2, §3, §4, §5, §6, §7
# [6] = test system: human cancer cell lines (U373, T98G, Hs683, OE21, OE33); test: MTT test, mean over the cancer cell lines; format: cell-based
# Method: as §1, §2, §3, §4, §5, §6, §7
# [7] = test system: U373 cells; test: Cellular imaging (videomicroscopy) of cultured U373 cells: antiproliferative class and global growth ratio; format: cell-based, human; set-up: key to Anti proliferative class / anti-proliferative class-GGR: class I: actually cytostatic for 3 days (<10% of cell death at the 3rd day); class II: cyctostatic but becomes cytotoxic with <10% cell death on the 2nd day, and >20% of cell death on the 3rd day; class III: cytostatic but rapidly becomes cytotoxic with <10% cell death on the 1st day, >20% of cell death on the 2nd day and >50% of cell death on the 3rd day; class IV: cytotoxic (>50% of cell death on the first day); conditions: for global growth ratio (GGR): GG treated cells/GG control cells, 72 h after drug addition, drug at its IC50 (MTT-test determined); for Anti proliferative class: cellular imaging of cultured U373 cells over three consecutive days
# From the text: The effects of the di- and tri-substituted beta-carboline derivatives as described herein can also be determined on cell proliferation, migration and morphology by means of a cellular imaging approach (Debeir et al., Cytometry 60:29-40, 2004; Debeir et al., IEEE Trans Med Imaging 24:697-711, 2005) either in, e.g., the human U373-MG glioma cell line, which is apoptosis-resistant but autophagy-sensitive (Lefranc F et al., Neurosurgery 2008) or in, e.g., the human A549 non-small-cell-lung cancer cell line, which is apoptosis-resistant and autophagy-resistant (Mijatovic T et al., Neoplasia 2006, May; 8(5):402-12).
# […] The experiments are conducted in quadruplicates.
# The behaviour of the cells, in terms of morphology, growth and death are thus investigated. The effect on the overall growth is measured by counting the number of cells on the first (0 h) and the last image (72 h) of each film. The global growth ratio (GGR) is then deduced by dividing the number of cells on the last image by the number of cells on the first image. The ratio GGRtreated cells/GGRcontrol cells is further calculated thereby providing a value that describes the effect of compounds of the present invention on the overall cell growth.
# The methodology is fully described and validated in Debeir et al., 2008, Exp Cell Res 314:2985-2998 and Mathieu et al., 2009, J Cell Mol Med, Feb. 20, 2009.
# [8] = mean over the cancer cell lines, MTT test, read-out: IC50 Mean ± SEM
# [9] = Homo sapiens, Hs 683, 72 hours of incubation
# [10] = Homo sapiens, OE21, 72 hours of incubation
# [11] = Homo sapiens, OE33, 72 hours of incubation
# [12] = Homo sapiens, mean over the cancer cell lines, MTT test, read-out: IC50 Mean ± SEM
Compound,IC50 [1] [µM],IC50 [2] [µM],IC50 ([3]; 72 hours of incubation) [µM],IC50 ([4]; 72 hours of incubation) [µM],IC50 ([5]; 72 hours of incubation) [µM],"IC50 [6, 8] [µM]","IC50 ([1]; Homo sapiens, U373 MG) [µM]","IC50 ([2]; Homo sapiens, T98G) [µM]","IC50 [3, 9] [µM]","IC50 [4, 10] [µM]","IC50 [5, 11] [µM]","IC50 [6, 12] [µM]","IC50 ([6]; Homo sapiens, Table 4, mean over cell lines, read-out: IC50 μM growth inhibition (MTT test)) [µM]",global growth ratio (GGR) [7],Anti proliferative class [7]
"Cc1c2c(cc[n+]1Cc1ccc(F)cc1)c1ccc(OCc3ccc(F)cc3)cc1n2Cc1ccc(F)cc1.[Br-] [CV29, 1-methyl-2-(4-fluorobenzyl)-7-(4-fluorobenzyl)oxy-9-(4-fluorobenzyl)-β-carbolin-2-ium bromide]",–,–,–,–,–,–,2.9 ± 0.1,14 ± 2,13 ± 1,3.7 ± 0.2,3.1 ± 0.3,7 ± 3,–,0.1,IV (class IV: cytotoxic (>50% of cell death on the first day))
Cc1nccc2c1[nH]c1cc(OCC3CCCCC3)ccc12 [JR167],7.48 ± 0.07,7.2 ± 0.2,22 ± 2,8.3 ± 0.2,8.1 ± 0.2,11 ± 3,–,–,–,–,–,–,–,0.1,IV (class IV: cytotoxic (>50% of cell death on the first day))
"Cc1c2c(cc[n+]1Cc1ccccc1)c1ccc(OCc3cccc(F)c3)cc1n2Cc1cccc(F)c1.[Br-] [CV16, 1-methyl-2-benzyl-7-(3-fluorobenzyl)oxy-9-(3-fluorobenzyl)43-carbolin-2-ium bromide]",0.82 ± 0.08,0.97 ± 0.02,2.8 ± 0.4,0.4 ± 0.1,2.9 ± 0.1,1.6 ± 0.5,–,–,–,–,–,–,–,0.4,I (class I: actually cytostatic for 3 days (<10% of cell death at the 3rd day))
"Cc1nccc2c3ccc(OCC4CCCCC4)cc3n(CC3CCCCC3)c12 [CV12, 1-methyl-7-cyclohexylmethyloxy-9-cyclohexylmethyl-β-carboline]",–,–,–,–,–,–,30.7 ± 0.8,32 ± 1,30 ± 2,17 ± 2,15 ± 3,25 ± 4,25,0.2,II
"Cc1nccc2c3ccc(O)cc3n(Cc3ccccc3)c12 [CV27, 1-methyl-7-hydroxy-9-benzyl-β-carboline]",–,–,–,–,–,–,80 ± 2,81 ± 11,79 ± 4,35 ± 2,35 ± 2,62 ± 11,–,0.2,II
"CCCCCC[n+]1ccc2c3ccc(OCc4ccccc4)cc3n(Cc3ccccc3)c2c1C [CV53, 1-methyl-2-hexyl-7-benzyloxy-9-benzyl-β-carbolin-2-ium bromide]",–,–,–,–,–,–,0.66 ± 0.09,3.1 ± 0.5,0.6 ± 0.1,1.9 ± 0.3,–,1.5 ± 0.6,–,–,–

# Second part, led by results:
IC50 [1] [µM],IC50 [2] [µM],IC50 ([3]; 72 hours of incubation) [µM],IC50 ([4]; 72 hours of incubation) [µM],IC50 ([5]; 72 hours of incubation) [µM],"IC50 [6, 8] [µM]","IC50 ([1]; Homo sapiens, U373 MG) [µM]","IC50 ([2]; Homo sapiens, T98G) [µM]","IC50 [3, 9] [µM]","IC50 [4, 10] [µM]","IC50 [5, 11] [µM]","IC50 [6, 12] [µM]","IC50 ([6]; Homo sapiens, Table 4, mean over cell lines, read-out: IC50 μM growth inhibition (MTT test)) [µM]",Compound,global growth ratio (GGR) [7],Anti proliferative class [7]
7.4 ± 0.4,12 ± 2,19 ± 2,33 ± 8,8.2 ± 0.4,16 ± 5,–,–,–,–,–,–,–,Cc1nccc2c1[nH]c1cc(OCc3cccc4ccccc34)ccc12 [JR147],0.2,IV (class IV: cytotoxic (>50% of cell death on the first day))
27 ± 2,42 ± 3,53 ± 3,30 ± 4,31 ± 4,37 ± 5,–,–,–,–,–,–,–,Cc1nccc2c1[nH]c1cc(OC(=O)c3ccccc3)ccc12 [JR140],0.2,III
–,–,–,–,–,–,0.39 ± 0.01,1.2 ± 0.2,0.37 ± 0.03,0.5 ± 0.09,–,0.6 ± 0.2,–,"Cc1c2c(cc[n+]1CCC(C)C)c1ccc(OCc3ccccc3)cc1n2Cc1ccccc1 [PL2, 1-methyl-2-(3-methylbutyl)-7-benzyloxy-9-benzyl-β-carbolin-2-ium bromide]",–,–
